Reference: patent US8999970B2, “Administration of an anti-obesity compound to individuals with renal impairment” (Arena Pharmaceuticals, Inc., priority 2010, dated 2015)
Entries after “also recorded” stand apart in the source; their conditions may differ.

How the values were obtained:
[1] = Clinical trial APD356-016: plasma and urine pharmacokinetics of lorcaserin, M1 and M5 after a 10 mg dose in subjects with renal impairment; conditions: for Ae0-120 / fe0-120: urine; for AUC24 hr / Cmax / t1/2: 10 mg QD Authentic, Day 1
In short: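 Single 10 mg lorcaserin dose in subjects grouped by renal function; plasma and urine sampled for lorcaserin, M1 and M5. Groups set by creatinine clearance from ideal body weight, with actual-weight regrouping also summarised; the dialysis subject counted as end-stage renal disease.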

[2] = tested on: panel of receptors, ion channels and transporters; assay: Pharmacological activity of metabolites at a panel of receptors, ion channels and transporters
[3] = Preclinical toxicology: M1 and M5 pharmacokinetics after oral administration of lorcaserin, 52 wk, mice
[4] = 10 mg dose, Mild, actual BW groups
[5] = 10 mg dose, Mild, ideal BW groups
[6] = 10 mg dose, Moderate, actual BW groups
[7] = 10 mg dose, Moderate, ideal BW groups
[8] = 10 mg dose, Normal, actual BW groups
[9] = 10 mg dose, Normal, ideal BW groups
[10] = 10 mg dose, Severe N = 1, actual BW groups
[11] = 10 mg dose, Severe, ideal BW groups
[12] = lorcaserin 25 mg/kg/day oral, F
[13] = lorcaserin 25 mg/kg/day oral, M
[14] = lorcaserin 50 mg/kg/day oral, F
[15] = lorcaserin 50 mg/kg/day oral, M

## C[C@H]1CN(S(=O)(=O)O)CCc2ccc(Cl)cc21 [Compound M1, lorcaserin sulfamate]
[1]; [4]
  % AUC0-inf Extrapolated: 4.54%
  ClNR/F: 16.7 L/h
  T1/2z: 14.6 h
  Ae0-120: 297 µg
  fe0-120: 0.0352
[1]; [5]
  % AUC0-inf Extrapolated: 3.36%
  ClNR/F: 12.8 L/h
  T1/2z: 13.0 h
  Ae0-120: 326 µg
  fe0-120: 0.0386
[1]; [6]
  % AUC0-inf Extrapolated: 3.74%
  ClNR/F: 18.2 L/h
  T1/2z: 14.9 h
  Ae0-120: 304 µg
  fe0-120: 0.0360
[1]; [7]
  % AUC0-inf Extrapolated: 4.92%
  ClNR/F: 17.0 L/h
  T1/2z: 15.9 h
  Ae0-120: 327 µg
  fe0-120: 0.0387
[1]; [8]
  % AUC0-inf Extrapolated: 3.57%
  ClNR/F: 15.1 L/h
  T1/2z: 12.1 h
  Ae0-120: 257 µg
  fe0-120: 0.0304
[1]; [9]
  % AUC0-inf Extrapolated: 3.81%
  ClNR/F: 17.1 L/h
  T1/2z: 11.0 h
  Ae0-120: 185 µg
  fe0-120: 0.0220
[1]; [10]
  % AUC0-inf Extrapolated: 3.70%
  ClNR/F: 17.2 L/h
  T1/2z: 18.8 h
  Ae0-120: 204 µg
  fe0-120: 0.0242
[1]; [11]
  % AUC0-inf Extrapolated: 3.59%
  AUC0-inf: 23600 ng·h/mL
  ClNR/F: 19.0 L/h
  T1/2z: 15.0 h
  Ae0-120: 280 µg
  fe0-120: 0.0332
[1]; ESRD
  Removal by hemodialysis: not removed; also recorded: not cleared
  AUC24 hr: 3650 ng·h/mL
  Cmax: 67.6 ng/mL
[1]; Mild
  AUC24 hr: 1940 ng·h/mL
  Cmax: 43.5 ng/mL
  t1/2: 45.5 h
[1]; Moderate
  AUC24 hr: 2240 ng·h/mL
  Cmax: 34.1 ng/mL
  t1/2: 70.8 h
[1]; Normal
  AUC24 hr: 1270 ng·h/mL
  Cmax: 33.6 ng/mL
  t1/2: 36.2 h
[1]; Severe
  AUC24 hr: 7850 ng·h/mL
  Cmax: 103 ng/mL
  t1/2: 220 h
[1]; mild (CLcr=51-80 mL/min)
  Exposure (Geometric Mean Ratio for AUCinf) increase compared to normal subjects: 1.6 fold
[1]; mild renal impairment
  Terminal half-life prolonged by: 26%
[1]; moderate (CLcr=31-50 mL/min)
  Exposure (Geometric Mean Ratio for AUCinf) increase compared to normal subjects: 2.3 fold
[1]; moderate renal impairment
  Terminal half-life prolonged by: 96%
[1]; severe (CLcr=5-30 mL/min)
  Exposure (Geometric Mean Ratio for AUCinf) increase compared to normal subjects: 16.7 fold
[1]; severe renal impairment
  Maximum individual Cmax relative to the mean Cmax: more than five times
  Terminal half-life prolonged by: 508%
[1]; severe renal impairment (ideal BW)
  AUC0-inf of subject 3285-009: 101000 ng·h/mL
[1]; severe renal impairment, eight individuals, day 1, 4 hours
  Mean plasma concentration: 99.5 ng/mL
[1]; severe renal impairment, day 1, 4 hours
  Plasma concentration (Cmax) of subject 3285-009: 542 ng/mL
[2]
  Activity at serotonin receptors or at a panel of more than 60 GPCRs, transporters and ion channels: neither metabolite is active
[2]; concentration of 10 μM
  Pharmacological activity against a panel of receptors, ion channels and transporters: pharmacologically inactive
[3]; lorcaserin 5 mg/kg/day oral, F
  AUC0-inf: 75200 ng·h/mL
  AUClast: 74400 ng·h/mL
  Cmax: 14400 ng/mL
  tmax: 0.5 h
[3]; lorcaserin 5 mg/kg/day oral, M
  AUC0-inf: 61200 ng·h/mL
  AUClast: 59700 ng·h/mL
  Cmax: 10800 ng/mL
  tmax: 0.5 h
[3]; [12]
  AUC0-inf: 221000 ng·h/mL
  AUClast: 217000 ng·h/mL
  Cmax: 39800 ng/mL
  tmax: 0.5 h
[3]; [13]
  AUClast: 223000 ng·h/mL
  Cmax: 25400 ng/mL
  tmax: 0.5 h
[3]; [14]
  AUC0-inf: 356000 ng·h/mL
  AUClast: 345000 ng·h/mL
  Cmax: 49100 ng/mL
  tmax: 0.5 h
[3]; [15]
  AUC0-inf: 319000 ng·h/mL
  AUClast: 308000 ng·h/mL
  Cmax: 42700 ng/mL
  tmax: 0.5 h
